The values below come from patent publication US20200054601A1, “NOVEL METHODS” (Ethismos Research, Inc., priority 2018, published 2020).

Data set [1] is described as follows: Qualitative solubility testing of the test article in the test system. The format is physicochemical. The conditions noted are these: aqueous buffer; pH 7.4, potassium phosphate buffer, MgCl2, EDTA, human liver microsomes 0.0125 mg/mL; read-out: Soluble in the test system (visual comparison). How it is done: Since stability of the test article solutions is not known, the stock solution and dilutions to working solutions are prepared fresh on the day of use.

For data set [2] the following is noted: cited from earlier work.
For data set [3] the following is noted: cited from earlier work; for Efficacy in MDD trials: phase 2 / phase 2b trials in MDD.
The target of another data set is T1, CYP2A6 (Homo sapiens, UniProt P11509).
T1 sequence (P11509 1-494): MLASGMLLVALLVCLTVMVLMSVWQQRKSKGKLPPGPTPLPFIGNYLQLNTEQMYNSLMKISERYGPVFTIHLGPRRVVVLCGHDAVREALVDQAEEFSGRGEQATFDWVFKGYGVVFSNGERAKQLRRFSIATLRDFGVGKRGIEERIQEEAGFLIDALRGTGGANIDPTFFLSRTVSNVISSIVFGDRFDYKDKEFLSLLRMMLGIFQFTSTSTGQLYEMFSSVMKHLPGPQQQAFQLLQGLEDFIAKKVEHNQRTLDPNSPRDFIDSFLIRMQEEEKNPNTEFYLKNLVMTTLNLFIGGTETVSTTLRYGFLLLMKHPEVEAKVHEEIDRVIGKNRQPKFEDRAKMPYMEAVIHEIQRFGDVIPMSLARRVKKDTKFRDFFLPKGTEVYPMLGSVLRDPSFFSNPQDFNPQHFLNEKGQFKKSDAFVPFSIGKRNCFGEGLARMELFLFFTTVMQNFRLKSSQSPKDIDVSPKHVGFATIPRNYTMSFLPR
In words: Inhibition of CYP2A6 coumarin 7-hydroxylation in human liver microsomes (direct, time- and metabolism-dependent). To be noted: both, pH 7.4. (Liver microsomes are a subcellular fraction often used to study metabolism.)

For data set [4] the following is noted: cited from earlier work; for Help in smoking cessation: reported, nortriptyline as the sole pharmacotherapy.

Protocol for CYP2A6: Known direct and metabolism-dependent inhibitors of CYP2A6 are included as positive controls.
Human liver microsomes from non-transplantable, donated livers are prepared and characterized at the testing facility as outlined by Pearce, R. et al., “Effects of Freezing, Thawing, and Storing Human Liver Microsomes on Cytochrome P450 Activity,” Archives of Biochemistry and Biophysics, 1996, 331 (2), 145-169 and Parkinson, A. et al., “The Effects of Gender, Age, Ethnicity and Liver Cirrhosis on Cytochrome P450 Enzyme Activity in Human Liver Microsomes and Inducibility in Cultured Human Hepatocytes,” Toxicology and Applied Pharmacology, 2004, 199 (3), 193-209. A mixed-gender pool of 200 individual human liver microsomal samples is used for this study (Sekisui XenoTech catalog number: H2610). The kinetic constants (S50 or Km) used to select marker substrate concentrations and incubation conditions are determined previously.
Incubation mixtures are prepared in bulk to obviate the need for directly pipetting very small volumes (i.e., 1 μL or less). The test article is dissolved in water and added directly to incubation mixtures.
A Tecan liquid handling system conducts all incubations. Duplicate aliquots of the buffer mixtures are automatically added to 96-well plates at the appropriate locations. […] The supernatant fractions are analyzed by liquid chromatography tandem mass spectrometry (LC-MS/MS). […]

As to `Clc1ccc([C@]23CNC[C@H]2C3)cc1Cl` [Amitifadine, (1R,5S)-1-(3,4-dichlorophenyl)-3-azabicyclo[3.1.0]hexane], the solubility in data set [1] was not below 200 µM. Moreover, in data set [2] (depression), the “Effect size in depression” value is reported as 0.6. Also, in data set [2] (given by mouth twice daily for up to 12 weeks), the Tolerability entry is reported as “good tolerability”.
Regarding `COC[C@@H]1[C@@H](c2ccc(Cl)c(Cl)c2)C[C@@H]2CC[C@H]1N2` [GSK-372475], the “Efficacy in MDD trials” value in data set [3] was “failed”.
Regarding `CN1Cc2cc(-c3ccc(N)nn3)ccc2[C@H](c2ccc3ccccc3c2)C1` [Liafensine], the “Efficacy in treatment resistant depression versus active comparators” value in data set [3] (two large phase 2b trials in TRD) was “no different from full-dose escitalopram (an SSRI) or duloxetine (an SNRI)”.
The inhibition is the relative decrease from the control value, in per cent. Read a high inhibition as a response far below the control. At CYP2A6, `CN1CCCC1c1cccnc1` (centres unmarked) [Nicotine] showed an inhibition at 5 min, 300 µM of 82.5%.
With `N[C@@H]1CC[C@@H](c2ccc(Cl)c(Cl)c2)c2ccccc21` [SEP-225289], the “Efficacy in MDD trials” value in data set [3] is recorded as “failed to differentiate versus the comparators”.
For the compound `CNCCC=C1c2ccccc2CCc2ccccc21` [nortriptyline], the “Help in smoking cessation” value in data set [4] is given as “increases long-term smoking cessation”.
For the compound `c1cnc2cc3c(cc2n1)[C@@H]1CNC[C@H]3C1` [varenicline], the “One year abstinence rate” value in data set [4] (smoking cessation) is on record as 23%. The 6-month abstinence rate in data set [4] (smoking cessation, placebo 10.6%) is on record as 27.6%.
On to `COc1ccc(C(CN(C)C)C2(O)CCCCC2)cc1` (centres unmarked) [venlafaxine], for which the “Help in smoking cessation” value in data set [4] is on record as “has not been shown to help”.
